Experiments:
KOPN-8 cells = assay: Cell Titer Glo viability assay, KOPN-8; format: cell-based; conditions: Homo sapiens, 72-h treatment
Method: (§1) Either 1 × 10^3–4.8 × 10^3 or 4 × 10^2–1.2 × 10^3 cells were seeded to each well of 96- or 384-well white polystyrene flat-bottomed plates (3610 or 8804BC, Corning) in 100 μL or 30 μL media per well, respectively. The concentrations used were experimentally determined to ensure logarithmic growth during the duration of the experiment and prevent adverse effects on cell growth by DMSO exposure. The plates were incubated at 37°C in 5% CO2 for 24 h before treatment. Stock solutions of test compounds (10 mM in DMSO) in nine 3-fold serial dilutions were dispensed via pintool (Biomek). The final concentration of DMSO was 0.3% (v/v) in each well. […] Luminescence was recorded in an Envision plate reader (PerkinElmer).
(§2) For the CTG assay, 3 or 4 replicate assays were conducted for each experimental condition, and a minimum of 3 independent experiments were conducted for cellular assays. The mean luminescence of each experimental treatment group was normalized as a percentage of the mean intensity of untreated controls. EC50 values (μM) were calculated by Pipeline Pilot Software (Accelrys, Enterprise Platform, San Diego, CA, United States). EC50 values (μM) from the viability assay were calculated from dose response curve-fitting via non-linear regression by using GraphPad Prism (Version 7.0, San Diego, CA, United States). […]

BCR-ABL cells = assay: Cell Titer Glo viability assay, BCR-ABL; format: cell-based, murine; conditions: Mus musculus, 72-h treatment
Method: as §1, §2

MDA-MB-231 cells = assay: ApoTox-Glo Triplex assay, MDA-MB-231; format: cell-based, human
Method: (§3) Cells (9.5 × 10^4/well in 75 μL of fresh medium) were dispensed in 96-well black flat bottom (8807BC, Corning) plates. The cells were incubated for 12 h at 37°C and then treated with compounds (25 μL) for 24 h. DMSO was used as a negative control, and staurosporine was used as the positive control. […] Then, the Caspase-Glo® 3/7 Reagent was added; plates were mixed briefly by orbital shaking (300-500 rpm for ∼30 s), followed by an additional 30 min incubation at RT. Then luminescence, which correlates with caspase 3/7 activation, was recorded with a plate reader to […] apoptosis induction.

[1] = Incubation of EP with NAC, monitored by NMR and LC-MS; format: physicochemical; conditions: NAC in DMSO, 24 h at 37°C
Sup-B15 cells = assay: Cell Titer Glo viability assay, Sup-B15; format: cell-based; conditions: Homo sapiens, 72-h treatment
Method: as §1, §2

SUM-149 cells [2] = assay: ROS measurement (CellROX green), SUM-149; format: cell-based, human; conditions: EP 20 μM
Method: SUM-149 or MDA-MB-231 were plated in 96-well plates at a density of 2 × 10^4 and 1 × 10^4 cells/well, respectively, in black 96-well clear bottom tissue culture plates and incubated for 24 h at 37°C. The mRuby-Mito-7 plasmid was obtained from Addgene (#55874 from Michael Davidson). A stable clone of MCF-7 was generated by using Fugene 6 (Roche) to transfect cells (2 × 10^5) with plasmid (2.0 μg) under neomycin selection. A stable cell line was selected by using G418 (300 μg/mL) for 2 weeks, sorted by flow cytometry, and maintained under G418 thereafter. Transfected MCF-7 cells were plated at a density of 2 × 10^4 cells/well in black 96-well clear bottom tissue culture plates and incubated overnight at 37°C. To test for ROS formation and remove background, cells were replenished with fresh PBS with 2% FBS and treated with the desired compounds for 1 h at 37°C. DMSO (0.5%) was used as a negative control, while Menadione (Mena, at 10 μM) or t-Butyl hydroperoxide (TBHP) at 100 μM final concentration were used as a positive control. To evaluate the compounds’ effects on ROS formation inhibition, the free radical scavenger N-acetyl cysteine (NAC) was used. Cells were treated with or without NAC (500 μM or 100 μM) for 1 h, then CellROX® green reagent (Molecular Probes #C10444) was added to a final concentration of 5 μM, and cells were incubated for an additional 30 min at 37°C. Cells were then washed 2× with PBS, followed by fixation with 4% paraformaldehyde (v/v) for 15 min, and 2 more washes with PBS. Fluorescence intensity was measured in a Clariostar® plate reader (BMG LABTECH, Cary, NC, United States) at 535 nm.

[3] = Solubility in DMSO or water; conditions: unless warmed up to 30°C
SUM-149 cells [4] = assay: Cell cycle assay (PI, flow cytometry); format: cell-based, human; conditions: 48 h
Method: SUM-149 cells were treated for 48 h with EP, then collected and washed in 1X PBS. The cells (5 × 10^5) were fixed and permeabilized in 70% ethanol at -20°C until further analysis. To measure the DNA content, the cells were washed and resuspended in 150 μL of PBS buffer then incubated in 100 μL of 100 μg/mL RNase A (MilliporeSigma, Burlington, MA, United States) for 15 min at RT, then 250 μL of 50 μg/mL Propidium Iodide (MilliporeSigma) was added. Samples were incubated at RT for 10 min and analyzed on a BD FACS Canto II flow cytometer (BD Biosciences, San José, CA, United States). Data were analyzed by using FlowJo software (V10, FlowJo, LLC, Ashland, OR, United States).

SUM-190 cells = assay: Cell viability assay, SUM-190; format: cell-based; conditions: Homo sapiens, SUM190; Figure 4E
Method: as §1, with “(PerkinElmer). […]” for “(PerkinElmer).”
as §2

SUM-149 cells [5] = assay: ApoTox-Glo Triplex assay, SUM-149; format: cell-based, human; conditions: SUM-149, 24 h
Method: as §3

SMILES: CC(C)[C@@H](C)/C=C/[C@@H](C)[C@H]1CC[C@@H]2[C@]1(C)CC[C@H]1[C@]23C=C[C@]2(C[C@@H](O)CC[C@]12C)OO3 [EP, ergosterol peroxide]
- EC50 (KOPN-8 cells): 22.4 µM
- EC50 (BCR-ABL cells): 6.9 µM
- cytotoxicity by membrane integrity (MDA-MB-231 cells; MDA-MB-231): increased cytotoxicity
- caspase 3/7 activity (MDA-MB-231 cells; MDA-MB-231, 24 h): increase caspase 3/7 activity
- viability (GF-AFC) (MDA-MB-231 cells; MDA-MB-231, 24 h): decrease viability
- reaction of the endoperoxide motif with NAC [1]: no observable olefin migration or opening of the endoperoxide was detected
- EC50 (Sup-B15 cells): 9.86 µM
- ROS formation (fold) (SUM-149 cells [2]; 1 h): fourfold
- reduction in ROS formation in the presence of NAC (SUM-149 cells [2]; NAC 500 μM, menadione 10 μM): about 20%
- solubility properties in DMSO or water [3]: poor
- percentage of cells in G0 (SUM-149 cells [4]; 20μM): 1.7%
- percentage of cells in G1 (SUM-149 cells [4]; 20μM): 81%
- percentage of cells in G2/M (SUM-149 cells [4]; 20μM): 9.8%
- percentage of cells in S (SUM-149 cells [4]; 20μM): 5.4%
- increase in percentage of cells in G1 phase (SUM-149 cells [4]; vs vehicle): ~20%
- reduction of the percentage of cells in G2/M (SUM-149 cells [4]; vs vehicle): ~10%
- EC50 (SUM-190 cells): 43 µM
- caspase 3/7 activity (SUM-149 cells [5]): increase caspase 3/7 activity
- viability (GF-AFC) (SUM-149 cells [5]): decrease viability
